# Measurements published in PMC12597529, “Interaction between W41 of the hepatitis B virus preS1 surface peptide and Y146/F274 of the cellular receptor molecule Na^+/taurocholate co-transporting polypeptide is essential for virus entry” (Molecular Pharmacology, 2025).
# Values joined by “and” are separate entries in the source; they are usually repeats but may differ in a detail not shown here. Equal values may be shown once. Read-outs that look alike come from different tables or passages of the source. Ends that are not written are not given here. * marks the point of attachment. Myristoyl = CCCCCCCCCCCCCC(=O)*
# T1: human Na+/taurocholate co-transporting polypeptide, wild type, FLAG-tagged, on NTCPwt-HEK293 cells (human, UniProt Q14973 1-349)
# T1 construct: also called NTCP-FLAG; NTCP-HEK293; source: T-Rex Flp-In HEK293, stably transfected (pcDNA5/FRT/TO), expression induced with tetracycline for 72 hours, on cells
# T1 sequence (looked up): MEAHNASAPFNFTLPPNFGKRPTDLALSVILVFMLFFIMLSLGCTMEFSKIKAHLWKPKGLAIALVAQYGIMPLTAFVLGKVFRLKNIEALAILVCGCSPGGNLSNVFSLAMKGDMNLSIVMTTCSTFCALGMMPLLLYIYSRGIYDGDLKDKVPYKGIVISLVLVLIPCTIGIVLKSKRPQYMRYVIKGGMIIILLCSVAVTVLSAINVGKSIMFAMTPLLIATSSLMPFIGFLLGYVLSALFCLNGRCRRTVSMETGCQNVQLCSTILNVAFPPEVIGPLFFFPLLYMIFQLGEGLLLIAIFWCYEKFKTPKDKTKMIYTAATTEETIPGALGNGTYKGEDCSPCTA
# B1: wild-type myr-preS1 peptide of HBV genotype D (unlabelled) (peptide)
# peptide: GQNLSTSNPLGFFPDHQLDPAFRANTANPDWDFNPNKDTWPDANKVG
# modifications: not fully specified (N-terminus); also: myristoylated (myr-preS1)
# notes: also called myr-preS1 WT; wild-type myr-preS1 peptide (genotype D)
# B2: W41G mutant myr-preS1 peptide of HBV genotype D (peptide)
# peptide: GQNLSTSNPLGFFPDHQLDPAFRANTANPDWDFNPNKDTGPDANKVG
# modifications: not fully specified (N-terminus); also: myristoylated (myr-preS1)
# notes: also called myr-preS1-W41G; myr-preS1 W41G peptide; source: bought: ProteoGenix S.A.S
# Assays:
# [1] = test system: NTCP; conditions: most of these compounds, cited from earlier work
# From the text: The hepatitis B virus (HBV) belongs to the family of Hepadnaviridae. Its DNA genome encodes 3 surface proteins (HBs), namely small HBs, middle HBs, and large HBs.[1] The hepatitis D virus (HDV) is a small negative-sense RNA satellite virus and depends on the HBV envelope for entry into hepatocytes, assembly, and secretion of newly formed virions.[2] […] HBV/HDV attachment to NTCP occurs via the myristoylated preS1 domain (myr-pre ...
# [2] = test system: NTCPwt and NTCP-Y146A/F274A; test: myr-preS1-AX568 peptide binding assay, NTCPwt-HEK293 vs NTCP-Y146A/F274A-HEK293 cells; design: species or system human; conditions: 5 to 160 nM, 37 °C, fluorescence, quadruplicate determinations, two-way ANOVA P < .01
# Description: T-Rex Flp-In human embryonic kidney (HEK293) cells (Thermo Fisher Scientific; RRID CVCL_0045) were grown in 1:1 Dulbecco’s modified Eagle medium (DMEM)/Ham’s F12 (Gibco). Both media were supplemented with 10% fetal calf serum (Gibco), L-glutamine 4 mM (Gibco), penicillin 100 U/mL (Carl Roth), and streptomycin 100 μg/mL (Carl Roth). Stably transfected T-Rex Flp-In HEK293 cells were selected with 100 μg/mL hygromycin (Carl Roth). Expression of the recombinant NTCP proteins was induced with 5 μg/mL tetracycline treatment for 72 hours. All cell lines were cultivated in 5% CO2 atmosphere at 37 °C. Cell lines were routinely checked for possible mycoplasma contamination. […]
# To study the HBV receptor function of NTCP, NTCPwt-HEK293 and NTCP-Y146A/F274A-HEK293 cells were incubated with the C-terminally Alexa 568 fluorophore-coupled myr-preS1 peptide (further referred to as myr-preS1-AX568), which consists of amino acids 2 to 48 of the large HBV genotype D3 surface protein (Biosynthesis). […] Myr-preS1-AX568 peptide binding was analyzed using Leica DMI6000 B inverted fluorescent microscope and LAS X software, or fluorescence was quantified with Spark multimode microplate reader (Spark Multimode Microplate, Tecan) (excitation: 570 nm, emission: 615 nm). […] Cell-associated radioactivity was quantified by liquid scintillation counting in a Packard Microplate Scintillation Counter TopCount NXT.
# [3] = test system: NTCP variants; conditions: cited from earlier work
# From the text: This is exemplified by the genetic c.800G>A variant (rs2296651) that is frequent in East Asian populations and that leads to S267F mutation of NTCP inside the tunnel structure. […] More detailed analysis ... || Interaction site A is formed between F13 and F14 of myr-preS1 and the amino acids Q264, F283, F284, and L287 (TM8b, EL4, and TM9) as well as F18 (TM1) of NTCP; interaction sites B between F23 of myr-preS1 and V29 and V32 of NTCP; and interaction site C between K38, D39, H40, and W41 of myr-preS1 and A273, F274, and P275 (TM8b, EL4, and TM9) as well as Y146 (of EL2) of NTCP. For some of these amino acids, mutation studies confirmed their role for the myr-preS1 interaction. […] However, this domain also covers the surface of NTCP and not the tunnel structure. Within the published structures N87 forms hydrogen binds with E43 and K46 of the myr-preS1 string structure, while for the NTCP amino acid residues 84 to 86 no interactions with the myr-preS1 peptide could be detected. As mouse Ntcp with the corresponding residues 84HLTS87 has S ...
# [4] = biological target: T1, human Na+/taurocholate co-transporting …; test: radioligand binding; competition: 5 nM [3H]preS1 on tetracycline-induced NTCP-HEK293 cells in 96-well plates, 10 minutes at 37 °C in DMEM, after preincubation with increasing concentrations of unlabelled peptide; cells without tetracycline as 0% control; liquid scintillation counting; 2 independent experiments; conditions: one partner purified
# [5] = biological target: T1, human Na+/taurocholate co-transporting …; test: cell-based or functional assay
molecule,measurement,setting,value
C=C(C)[C@@H]1CC[C@]2(C(=O)O)CC[C@]3(C)[C@H](CC[C@@H]4[C@@]5(C)CC[C@H](O)C(C)(C)[C@@H]5CC[C@]43C)[C@@H]12 [betulinic acid],"NTCP inhibition, selectivity virus binding vs bile acid transport",[1]; plant-derived compounds,block NTCP in a nonselective manner
CCCCCCCCCc1cc(OC(=O)c2c(CCCCCCCCC)cc(O)cc2OC2OC(CO)C(O)C(O)C2O)cc(O)c1C(=O)O (stereo not drawn) [exophillic acid],"NTCP inhibition, selectivity virus binding vs bile acid transport",[1]; plant-derived compounds,block NTCP in a nonselective manner
O=C1[C@H](CC[C@H](O)c2ccc(F)cc2)[C@@H](c2ccc(O)cc2)N1c1ccc(F)cc1 [ezetimibe],"NTCP inhibition, selectivity virus binding vs bile acid transport",[1]; approved drugs,block NTCP in a nonselective manner
CCCCC1=NC2(CCCC2)C(=O)N1Cc1ccc(-c2ccccc2-c2nnn[nH]2)cc1 [irbesartan],"NTCP inhibition, selectivity virus binding vs bile acid transport",[1]; approved drugs,block NTCP in a nonselective manner
CC[C@H]1[C@@H](O)[C@@H]2[C@H](CC[C@]3(C)[C@@H]([C@H](C)CCC(=O)O)CC[C@@H]23)[C@@]2(C)CC[C@@H](O)C[C@@H]12 [obeticholic acid],"NTCP inhibition, selectivity virus binding vs bile acid transport",[1]; bile acid derivatives,block NTCP in a nonselective manner
CC(C)c1nc(CN(C)C(=O)N[C@H](C(=O)N[C@@H](Cc2ccccc2)C[C@H](O)[C@H](Cc2ccccc2)NC(=O)OCc2cncs2)C(C)C)cs1 [ritonavir],"NTCP inhibition, selectivity virus binding vs bile acid transport",[1]; approved drugs,block NTCP in a nonselective manner
CN(CCOc1ccc(CC2SC(=O)NC2=O)cc1)c1ccccn1 (stereo not drawn) [rosiglitazone],"NTCP inhibition, selectivity virus binding vs bile acid transport",[1]; approved drugs,block NTCP in a nonselective manner
CCC(C)CC(C)C(=O)OC1(C)C(=O)c2c(cc(O)c3c2CC(O)CC3C)C(C)(O)C1=O (stereo not drawn) [vanitaracin A],"NTCP inhibition, selectivity virus binding vs bile acid transport",[1]; plant-derived compounds,block NTCP in a nonselective manner
"myr-preS1-AX568: C-terminally Alexa 568 fluorophore-coupled myr-preS1 peptide, amino acids 2 to 48 of the large HBV genotype D3 surface protein (Myristoyl-GQNLSTSNPLGFFPDHQLDPAFRANTANPDWDFNPNKDTWPDANKVG-{Alexa 568}; also: myristoylated (myr-preS1))",binding to the Y146A/F274A NTCP mutant compared with NTCPwt,[2],much lower binding to the NTCP-Y146A/F274A mutant compared with NTCPwt
myr-preS1: myristoylated preS1 domain of the HBV large surface protein (Myristoyl-GQNLSTSNPLGFFPDHQLDPAFRANTANPDWDFNPNKDTWPDANKVG),myr-preS1 binding,[3]; 84 to 87 humanized construct of mouse Ntcp,did not only bind myr-preS1 but also supported infection
same,myr-preS1 binding,[3]; 158R NTCP variant found in OWM,resistant to myr-preS1 binding
same,myr-preS1 binding,"[3]; NTCP Q264A mutant, bile acid transport retained",significantly reduced myr-preS1 binding
same,myr-preS1 binding,"[3]; NTCP V272W mutant, intact bile acids transport",significantly reduced myr-preS1 binding
same,myr-preS1 binding,[3]; R158G mutation of OWM Ntcp,sufficient to support myr-preS1 binding
B1,IC50,[4],99 nM and 168 nM
same,"inhibition of [3H]TCA (1 μM) transport via NTCP in NTCP-HEK293 cells, 10 minutes at 37 °C, IC50",[5],111 nM and 221 nM
B2,IC50,[4],422 nM and 298 nM
same,"inhibition of [3H]TCA (1 μM) transport via NTCP in NTCP-HEK293 cells, 10 minutes at 37 °C, IC50",[5],386 nM and 397 nM
